PubChem BioAssay (NCI)
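Compound exposure: 48 hours, 5 concentrations, 96-well plates. GI50 = concentration required for 50% inhibition of growth. Definition used: TGI = concentration required for complete inhibition of growth.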

What was measured:
Assay in all cases: NCI anticancer screen, dose series, 48 h
[1] = tested on: MCF7 breast
[2] = tested on: SK-MEL-5 melanoma
[3] = tested on: RPMI-8226 leukemia
[4] = tested on: A498 renal
[5] = tested on: UO-31 renal
[6] = tested on: RXF 393 renal
[7] = tested on: U251 CNS
[8] = tested on: DU-145 prostate

| SMILES | TGI [1] [µM] | TGI [2] [µM] | TGI [3] [µM] | TGI [4] [µM] | TGI [5] [µM] | TGI [6] [µM] | TGI [7] [µM] | TGI [8] [µM] | GI50 [1] [nM] | GI50 [3] [nM] | GI50 [4] [nM] | GI50 [5] [nM] | GI50 [6] [nM] | GI50 [8] [µM] | GI50 [2] [nM] | GI50 [7] [nM] |
| --- | --- | --- | --- | --- | --- | --- | --- | --- | --- | --- | --- | --- | --- | --- | --- | --- |
| CCCNC(=O)c1cc(OC)c(OC)cc1NC(=O)C12CC3CC(CC(C3)C1)C2 | 64.2 | > 100 | 92.7 | 31.6 | 30.1 | 19.3 | 30.7 | 35.5 | – | – | – | – | – | – | – | – |
| COc1ccc(C(CC(=O)c2cccs2)C(=O)c2ccc3c(c2)OCO3)cc1 (centres undefined) | > 100 | > 100 | > 100 | > 100 | – | – | > 100 | > 100 | – | – | – | – | – | – | – | – |
| O=C(NCC(O)COc1ccccc1)c1ccccc1O (centres undefined) | > 100 | > 100 | > 100 | > 100 | > 100 | > 100 | > 100 | > 100 | – | – | – | – | – | – | – | – |
| O=C(O)c1ccccc1Sc1ccc(C=C2NC(=S)N(c3ccccc3)C2=O)s1 | > 100 | > 100 | > 100 | > 100 | > 100 | > 100 | > 100 | > 100 | – | – | – | – | – | – | – | – |
| O=[N+]([O-])c1ccc(CSC2=C(c3ccc(Cl)cc3)S/C(=C3\SC(SCc4ccc([N+](=O)[O-])cc4)=C(c4ccc(Cl)cc4)S3)S2)cc1 | > 100 | > 100 | – | > 100 | – | > 100 | > 100 | > 100 | – | – | – | – | – | – | – | – |
| CCOC(=O)/C(C(=O)c1ccc[nH]1)=C1/CCCN1C | > 100 | > 100 | > 100 | > 100 | > 100 | > 100 | > 100 | > 100 | – | – | – | – | – | – | – | – |
| CCOC(=O)c1c(N2CCN(C)CC2)[nH]c(=O)c(C(c2c(Cl)cccc2Cl)c2c(O)c(C(=O)OCC)c(N3CCN(C)CC3)[nH]c2=O)c1O | > 100 | 40.1 | > 100 | 39.8 | 39.1 | 38.8 | 50 | 38.3 | – | – | – | – | – | – | – | – |
| CCOc1c2c(cc3c1C(=O)c1c(OC)cccc1C3=O)C=C(OC)CC2 | > 25 | > 25 | > 25 | > 25 | > 25 | > 25 | > 25 | > 25 | – | – | – | – | – | – | – | – |
| CN(C)CCCn1c(-c2ccc(Br)cc2)csc1=Nc1ccccc1 | 54 | – | 44.4 | 28.3 | 30.2 | 29.8 | > 100 | – | – | – | – | – | – | – | – | – |
| C=CC[PH+](c1ccccc1)c1ccccc1.C=CC[PH+](c1ccccc1)c1ccccc1.[Pt+2].[S-]c1nc2ccccc2[nH]1.[S-]c1nc2ccccc2[nH]1 | 9.91 | – | 3.22 | 4.98 | 36.5 | 7.06 | – | 42.8 | 2570 | 401 | 1720 | 2580 | 2610 | 3.33 | – | – |
| Cc1cc2nc3c(N)nn(CCCN(C)C)c3nc2cc1C | > 100 | > 100 | > 100 | > 100 | > 100 | > 100 | > 100 | > 100 | – | – | – | – | – | – | – | – |
| CC(C)=CC(=O)c1[nH]c2ccccc2c1CC(=O)NCCc1cnc[nH]1 | > 100 | > 100 | – | > 100 | > 100 | > 100 | > 100 | > 100 | – | – | – | – | – | – | – | – |
| COc1ccc(/C=C(\C#N)c2ccccn2)cc1OC | 72.6 | > 100 | > 100 | – | 82.2 | > 100 | 42 | > 100 | – | – | – | – | – | – | – | – |
| CCC(CCCC[C@H]1CC[C@@H]2CC(=O)C[C@H]12)OC (some centres undefined) | > 100 | > 100 | > 100 | > 100 | – | > 100 | > 100 | > 100 | – | – | – | – | – | – | – | – |
| c1c2c(cc3c1OCO3)-c1ncc3cc4c(cc3c1C2)OCO4 | 7.44 | 0.479 | > 76.9 | – | > 100 | 43.5 | 26.9 | – | < 37.7 | 108 | – | 2490 | 797 | – | 216 | < 36.9 |
| C(/C=C(\Nc1ccccc1)c1ccc2ccccc2c1)=Nc1ccccc1 | 15.7 | 13.8 | 5.67 | 25.8 | 15.8 | 7.41 | 8.66 | 6.29 | – | – | – | – | – | – | – | – |
| CN(CCNC(=O)c1nn(C)c2c1Cc1ccccc1-2)CCNC(=O)c1nn(C)c2c1Cc1ccccc1-2 | 26 | 24.5 | – | 28.7 | 24.2 | 29.5 | 28.9 | 41.5 | – | – | – | – | – | – | – | – |
| C[N+]1(CC[N+]2(C)CCCC2c2cccnc2)CCCC1c1cccnc1 (centres undefined) | > 100 | > 100 | > 100 | > 100 | > 100 | > 100 | > 100 | > 100 | – | – | – | – | – | – | – | – |
| CCCCCCCC(=O)NC(C)(C)C(=O)NCC(=O)NC(CC(C)C)C(=O)NC(C)(C)C(=O)NCC(=O)NCC(=O)NC(CC(C)C)C(=O)NC(C)(C)C(=O)NCC(=O)NC(C(=O)NC(CO)CC(C)C)C(C)CC (centres undefined) | – | 7.19 | 4.27 | – | 7.93 | 7.97 | 5.33 | 9.53 | – | – | – | – | – | – | – | – |
| COc1ccc(/C=N/n2c(-c3ccccc3)n[nH]c2=O)c(OC)c1 | > 100 | > 100 | > 100 | > 73.4 | > 70 | > 93.4 | > 100 | > 100 | – | – | – | – | – | – | – | – |
| C#C[C@]1(O)CC[C@H]2[C@@H]3CCC4=C/C(=N/OC(=O)c5cccc6cc7ccccc7nc56)CC[C@@H]4[C@H]3CC[C@@]21CC | > 100 | > 100 | > 100 | > 100 | – | > 100 | > 100 | > 100 | – | – | – | – | – | – | – | – |
| c1ccc(-c2cc(-c3ccccc3)nc(-c3ccncc3)c2)cc1 | > 100 | > 100 | > 100 | – | > 100 | > 100 | > 100 | > 100 | – | – | – | – | – | – | – | – |
| COC(=O)[C@@H]1CN(C(=O)Cc2ccccc2)C(=O)N1 | – | > 100 | > 100 | > 100 | > 100 | > 100 | > 100 | > 100 | – | – | – | – | – | – | – | – |
| O=C1OCOC2(CCCC2)C1c1ccccc1 (centres undefined) | – | > 100 | > 100 | > 100 | > 100 | > 100 | > 100 | > 100 | – | – | – | – | – | – | – | – |
